This is an account of results in patent US11465989B2, “Guanidine compounds and use thereof” (IMMUNOMET THERAPEUTICS INC., priority 2014, dated 2022).

The subject of one assay is H1975 cell. Description: In vitro combination study with Dasatinib on H1975 cell. The format is cell-based. The settings on record: 0.2 μM of Dasatinib, 8 μM or 40 μM of Example 1, 40 μM or 200 μM of Example 104. The protocol: (§1) A549, H1975 (CRL5908, ATCC) or U937 cell (CRL1593.2™, ATCC) lines were cultured in RPMI 1640 media (Lifetechnologies, CA) with supplement of 10% FBS and antibiotic-antimycotic (Lifetechnologies, CA). Dasatinib (Combi-Blocks, San Diego, Calif.) is Bcr-Abl-tyrosine kinase inhibitor and Src family tyrosine kinase inhibitor approved for CML treatment. GDC094 (Selleckchem, Houston, Tex.) is a pan-PI3K inhibitor and effective in various cancer cells. H1975 or A549 cells were dissociated from culture plate using 0.5% trypsin-EDTA (Lifetechnologies, CA) and were suspended. U937 cells were spun down using centrifugation. […]
(§2) Among four concentrations of the compounds of present invention, the highest concentration was set to IC80 and the lowest concentration was approximately IC30. […] 100 μl of DMSO was added after removing MTT solution from each well, and were read by VICTOR X3 Multilabel Counter at the wavelength of 550 nm.
(§3) For the analysis of U937 cell viability, 20 μl of Celltiter96® AQueous one solution (MTS, Promega, Madison, Wis.) were added to each well, and plates were incubated at 37° C. and 5% CO2. After 2 hours later, plates read by VICTOR X3 Multilabel Counter at the wavelength of 490 nm. The combination index (CI value) was calculated using Calcusyn (Biosoft, UK).

For a further assay, the system named is SK-MEL-28 cells. Description: Cytotoxicity in low glucose condition (MTT). The class given is cell-based. The settings on record: Homo sapiens, SK-MEL-28, 0.75 mM glucose, 72 hours, read-out: SK-MEL-28 0.75 mM glucose Cell viability (IC50 ia). The text has this: The inhibition of oxidative phosphorylation (OXPHOS) is not cytotoxic to cells in normal glucose condition, because it is postulated that normal cells have compensatory mechanism under energy stress conditions such as low glucose. However OXPHOS inhibitors show cytotoxic effect on cells in the glucose deprived condition (BirsoyK, 2014). The glucose deprived condition is observed in tumor microenvironment potentially due to poor angiogenesis. Therefore the OXPHOS inhibitors may show anti-cancer effect on cancer cells in low glucose condition that may depict tumor microenvironment.
The compounds of the present invention were evaluated their cytotoxicity in SK-MEL-28, melanoma with 0.75 mM glucose supplement. The cytotoxic effect is compared with the cytotoxicity caused by phenformin. The cytotoxicity in low glucose condition is correlated with inhibition of oxygen consumption in mitochondria.
SK-MEL-28 (HTB-72) is a melanoma cell line obtained from ATCC (MA) and cultured in RPMI 1640 media (Lifetechnologies, CA) with supplement of 10% FBS and antibiotic-antimycotic (Lifetechnologies, CA). RPMI 1640 (-Glucose) was used to prepare low glucose media and 0.75 mM glucose was supplied with D-(+)-glucose solution from Sigma. SK-MEL-28 cells were separated from culture plate using 0.5% trypsin-EDTA and 5,000 cells were plated in 96-well plate with low glucose media. After incubation at 37° C. for 24 hour, 5% CO2, the cells were treated with the compounds of present invention in FBS-free media for 72 hours. The cytotoxicity was measured by the MTT (AMRESCO, OH) assay. NADH-dependent cellular oxidoreductase reduces MTT to its insoluble […] with purple color. The enzyme depends on cell number or energy state of cells. 10 μl of 5 mg/ml MIT solution was added to each well of the assay plate and skip the well for blank. The plate was incubated at 37° C. and 5% CO2 for 2 hours. The MTT solution was removed from each well and 100 μl of DMSO was added. The plate was read by VICTOR X3 Multilabel Counter at the wavelength of 550 nm. In Table 2, the levels of IC50 are evaluated by the following criteria.

Assay [1] has as its system A549 cells. Description: Inhibition of OCR (XF Analyzer). The class given is cell-based. The note with it: Homo sapiens, A549, 24 h. From the text:
The electron transfer complex in mitochondria is composed of 5 complexes. The complex I accept electrons from NADH produced from glycolysis and TCA cycle and the electrons move to complex […] and the electron is finally transferred to O2 and water molecule is generated. During the electron transfer, proton gradient is generated and the chemical gradient is a driving source to synthesize ATP at complex V. The mitochondrial inhibition of complex I indirectly assessed by measuring the oxygen consumption rate (OCR) at complex IV. […] The solution outside of cells becomes acidic (lower pH) as lactate is transported to outside of cells. OCR and Extracellular acidification rate (ECAR) are determined by XF Analyzer (Seahorse Biosciences).
A549 cells were purchased from American Type Tissue Culture Collection ([…]) and cultured in RPMI 1640 supplied with 10% fetal bovine serum (FBS) and antibiotic-antimycotic (Lifetech, CA). A549 cells were separated with 0.5% Trypsin-EDTA and 3,000 cells were plated on 1 mg/ml poly-D-lysine (Sigma, P6407) coated XF 96 well […]. A549 cells were allowed to adhere to the wells for 24 hours under the condition of temperature, 37° C. and 5% CO2 The sensor cartridge of XF Analyzer was soaked in 200 Ad of Calibrant solution (Seahorse, MA) in a clear 96-well plate at 37° C. for 24 hours. The compounds of the present invention were diluted with RPMI 1640 without FBS, transferred to A549 cells on XF 96 well plate, and incubated further for 23 hours at 37° C. and 5% CO2. After incubation, the compound solution was exchanged with pre-warmed and pH adjusted (pH7.4) XF assay media (Seahorse) supplied with 15 mM D-glucose (Sigma), 15 mM sodium pyruvate (Lifetechnologies, CA) and 4 mM L-glutamine (Lifetechnologies, CA). The compounds of present invention were prepared in XF Assay media and added to the assay plate. The assay plate was equilibrated in XF Analyzer for 1 hour, and the reading were started by sensor cartridge. The cytotoxicity assay was followed using Cyquant (Lifetechnologies, CA) in order to calibrate the inhibition with cytotoxicity of compounds. The concentrations of the compounds were tested at […] and IC50 value was obtained from the inhibited values. That is, from OCR inhibition values at each concentration of the compound, IC50 was calculated according to Prism's dose response curve fitting.
In Table 1, the levels of OCR IC50 are evaluated by the following.

The test system of assay [2] is SK-MEL-239 tumor cells. Description: In vivo xenograft model using SK-MEL-239 cell. More on the design: species or system mice. The settings on record: Dosing 150/100 mg/kg, oral, twice daily.
For assay [3], the system named is A549 cells. Description: In vitro combination study with Dasatinib on A549 cell. The class given is cell-based. The note with it: 0.05 μM of Dasatinib and 8 μM of Phenformin. How it is done:
as §1, §2, §3

Assay [4] concerns SK-MEL-239 tumor cells. Description: In vivo xenograft model using SK-MEL-239 cell. More on the design: species or system mice. The protocol: The compounds of the present invention were evaluated in vivo using xenograft human cancer model in mice. The compounds of invention were administrated orally or interperitoneal injection. Tumor cell lines were cultured in vitro as monolayer culture. Using female BALB/c nude mice with immune system compromised, each mouse was inoculated subcutaneously at the right flank with tumor cells for tumor development. The treatment was started when the tumor size reaches approximately 100 mm^3
The SK-MEL-239 tumor cell line was maintained in vitro as monolayer in RPMII 640 medium supplemented with 10% heat inactivated fetal bovine serum, 100 U/ml penicillin and 100 μg/ml streptomycin, and L-glutamine (2 mM) at 37° C. in an atmosphere of 5% CO2 in air. The tumor cells were routinely subcultured twice weekly with 0.5% trypsin-EDTA treatment. The cells growing in an exponential growth phase were harvested and counted for tumor cell inoculation.
Female BALB/c nude mice aged 6-8 weeks and weighing approximately 18-22 g were purchased from Vital River. Each mouse was inoculated subcutaneously at the right flank with SK-MEL-239 tumor cells (1×10^7) in 0.1 ml of PBS for tumor development. The treatment was started, when the tumor size reaches approximately 100 mm^3. 100 mg/kg of Phenformin and 15 mg/kg of Vemurafenib were administered via oral gavage twice daily and 100 mg/kg HLPOI (HL176001001) was administered once daily for 21 days. Tumor volumes were measured twice a week in two dimensions using a caliper, and the volume was expressed in mm^3 using the formula: V=0.5×a×b^2, where a and b were the long and short diameters of the tumor, respectively. The T/C value (in percentage) was an indication of antitumor effect. T and C were the mean volumes of the treated and control groups, respectively.

The mark [5] stands for this setting: Dosing 15 mg/kg, oral, twice daily, Day 28.

Counter-ions that a name gives are not always drawn.

On to `Cl.N=C(N)NC(=N)NCCc1ccc(F)cc1` [Example 104, N-1-(4-fluoro)phenethylbiguanide hydrochloride], for which, in the assay on H1975 cell, the “combination therapy effect with Dasatinib” value was “low combination therapy effect”.
`N=C(N)NCCc1ccc(C2CC2)cc1` [Example 182, 1-(4-cyclopropylphenethyl)guanide hydrochloride]: the half-inhibitory concentration (IC50) in the assay with SK-MEL-28 cells was 5 to 10 µM; in the assay on A549 cells [1] it was 2 to 5 µM.
The matching figures for `N=C(N)NCCc1ccc2c(c1)CCCC2` [Example 183, 1-(2-(5,6,7,8-tetrahydronaphthalen-2-yl)ethyl)guanide hydrochloride]: below 5 µM and below 2 µM.
The matching figures for `N=C(N)NCCc1ccc(-c2ccccc2)cc1` [Example 195, 1-(4-phenylphenethyl)guanide hydrochloride]: below 5 µM and 2 to 5 µM.
On to `N=C(N)NCCC1CCCCC1` [Example 197, 1-(2-cyclohexylethyl)guanide hydrochloride], for which the 50% inhibitory concentration (IC50) in the assay on SK-MEL-28 cells is above 10 µM; with A549 cells [1], 2 to 5 µM.
With `N=C(N)NCc1ccc2c(c1)CCCC2` [Example 199, 1-((5,6,7,8-tetrahydronaphthalen-2-yl)methylguanide hydrochloride], the IC50 is above 10 µM with SK-MEL-28 cells and above 5 µM in the assay with A549 cells [1].
With `N=C(N)NCCC1CCCC1` [Example 204, 1-(2-cyclopentylethyl) guanide hydrochloride], the IC50 was above 10 µM in the assay with SK-MEL-28 cells and 2 to 5 µM in the assay with A549 cells [1].
On to `N=C(N)NCC1CCCCC1` [Example 205, 1-(1-cyclohexylmethyl) guanide hydrochloride], for which the IC50 is above 10 µM in the assay with SK-MEL-28 cells and 2 to 5 µM with A549 cells [1].
With `[H]/N=C(/N)N/C(=N/[H])NCCc1ccccc1` [Phenformin, phenformin, reference compound], in the assay with SK-MEL-239 tumor cells [2], the “T/C (Day 28, %)” value came to 52.2% and the “Tumor Volume (Day 28, mm^3, a)” value is reported as 1,562 ± 166 mm^3. For the same molecule, in the assay on A549 cells [3], the “synergic effect in combination with Dasatinib” value is “did not show the synergic effect”. In addition, the “tumor volume compared to the control group” value with SK-MEL-239 tumor cells [4] (100 mg/kg, Phenformin twice daily, Example 1 once daily) was “significant reduction of tumor volume”. Further, the “tumor volume compared to the single administration of Vemurafenib” value with SK-MEL-239 tumor cells [4] (in combination with 15 mg/kg of Vemurafenib) was “did not show the significant reduction of tumor volume”.
As for `CCCS(=O)(=O)Nc1ccc(F)c(C(=O)c2c[nH]c3ncc(-c4ccc(Cl)cc4)cc23)c1F` [Vemurafenib, reference compound], in the assay with SK-MEL-239 tumor cells [4] (setting [5]), the “T/C (Day 28, %)” value came to 38.0% and the “Tumor Volume (Day 28, mm^3, a)” value is 1,144 ± 101 mm^3.

By IC50 is commonly meant the point on the concentration scale where inhibition reaches its midpoint.
